From US20260042834A1, “ANTI-CORTICOTROPIN-RELEASING HORMONE ANTIBODIES AND POLYCYSTIC OVARY SYNDROME” (HBM ALPHA THERAPEUTICS, INC., priority 2022, published 2026)

Test system: human CRHR1
Assay: CRH-induced luciferase reporter blocking assay, CHO-CRE-hCRHR1 cells
Assay type: cell-based
Conditions: CHO-CRE-hCRHR1 Clone 11, data not shown
Description: To create CHO-CRE-hCRHR1, -hCRHR2, -mCRHR1, and -mCRHR2 reporter cell lines, pcDNA3.1-hCRHR1, -hCRHR2, -mCRHR1, and -mCRHR2 were introduced into CHO-CRE cells established above by electroporation as described above. Selection antibiotics hygromycin at 500 μg/ml and G418 at 1,000 μg/ml were employed. Individual established stable cell lines were characterized by both CRH and forskolin stimulation.
Activated GPCR proteins increase production of the intracellular cAMP.
Blocking CRHR1 by small molecules or neutralization of CRH peptide can reduce luciferase expression if the CRH-CRHR1 system works in CHO-CRE-hCRHR1 cells.
50 μl of 4× serially diluted antibodies was added (8 points, 1/4 diluted by growth medium) to plates containing CHO-CRE-hCRHR1 cells, and 50 μl of 4×CRH (4× is 2 nM, final is 0.5 nM) was added. Similarly, 4×CRH (4× is 0.4 nM, final is 0.1 nM) was added to CHO-CRE-hCRHR2 cells and CHO-CRE-mCRHR1 cells, and 4×CRH (4× is 20 nM, final is 5 nM) was added to CHO-CRE-mCRHR2 cells. Next, plates were incubated 4-6 hours at 37° C. in a CO2 incubator. 60 μl of culture medium was removed, to which was added 60 μl of Bio-Glo luciferase, followed by incubation for 10 min at RT. Plates were read in a luciferase plate reader (EnVision, PerkinElmer).

Question: Which CRH-mediated luciferase expression does the source give for `CCCCN(CC)c1nc(C)nc2c1c(C)c(C)n2-c1c(C)cc(C)cc1C` [Antalarmin, reference compound] here?
Answer: blocked
